Tests used:
Test in all cases: greenhouse post-emergence herbicidal test
Type in all cases: in vivo
[1] = system: AMBEL (Ambrosia elatior); conditions: AMBEL; a) 3.125 g/ha, MSO or COC 1.25%, scale 0-100
Excerpt: (§1) The culture vessels used were plastic flowerpots filled, as substrate, with sandy loam comprising about 3% of humus. The seeds of the test plants were sown separated according to species.
(§2) For the post-emergence treatment, the test plants were initially cultivated to a height of 3-17 cm according to their habit and only then treated with the active compounds, which had been suspended or emulsified in water. To this end, the test plants were either sown directly and cultivated in the same vessels, or they were initially cultivated separately as seedlings and transplanted into the test vessels a few days prior to the treatment. According to the species, the plants were kept at temperatures of from 15° C. to 25° C. or from 20 to 35° C. The trial period extended over 3 weeks. During this time the plants were tended and their response to the individual treatments was evaluated.
(§3) The application in the greenhouse was carried out at a spray liquor application rate of 200 l/ha.

[2] = system: ECHCG (Echinochloa crus-galli); conditions: MSO or COC 1.25%, scale 0-100
Excerpt: as §1, §2, §3

[3] = system: HELAN (Helianthus annua); conditions: HELAN; a) 6.25 g/ha, MSO or COC 1.25%, scale 0-100
Excerpt: as §1, §2, §3

[4] = system: PANDI (Panicum dichotomiflorum); conditions: PANDI; a) 25 g/ha, MSO or COC 1.25%, scale 0-100
Excerpt: as §1, §2, §3

[5] = system: PANMI (Panicum milliaceum); conditions: PANMI; a) 12.5 g/ha, MSO or COC 1.25%, scale 0-100
Excerpt: as §1, §2, §3

[6] = system: SETVI (Setaria viridis); conditions: SETVI; a) 12.5 g/ha, MSO or COC 1.25%, scale 0-100
Excerpt: as §1, §2, §3

[7] = system: SOLNI (Solanum nigrum); conditions: SOLNI; a) 3.125 g/ha, MSO or COC 1.25%, scale 0-100
Excerpt: as §1, §2, §3

[8] = system: SORBI (Sorghum bicolor); conditions: SORBI; a) 25 g/ha, MSO or COC 1.25%, scale 0-100
Excerpt: as §1, §2, §3

[9] = system: XANST (Xanthium strumarium); conditions: XANST; a) 12.5 g/ha, MSO or COC 1.25%, scale 0-100
Excerpt: as §1, §2, §3

Compound: Cc1c(C(=O)c2cnn(C)c2O)ccc(S(C)(=O)=O)c1C1=NOCC1 [a)]
- observed effect [1]: 60
- observed effect ([2]; ECHCG; a) 12.5 g/ha): 0
- observed effect ([2]; ECHCG; a) 25 g/ha): 0
- observed effect [3]: 30
- observed effect [4]: 0
- observed effect [5]: 75
- observed effect [6]: 60
- observed effect [7]: 30
- observed effect [8]: 10
- observed effect [9]: 65
